≈ marks a conversion by molar mass, not a printed value.

Here are results for eight molecules from patent publication US7968579B2, “Antifungal triazole derivatives” (Daewoong Pharmaceutical Co., Ltd., priority 2005, dated 2011).

The test system of one data set is Aspergillus flavus. Briefly: In vitro assay for antifungal activity. Format: cell-based. Conditions: RPMI 1640, 1% DMSO, concentration at which 50% of the fungi were inhibited vs negative control, alamarblue; for MIC: Aspergillus flavus. As for the experimental part:
(§1) Fungal strains to be tested were inoculated onto Sabouraud dextrose agar, YM agar, and Potato dextrose agar and sufficiently cultured at 35° C. for two to three days. Individual single colonies of the yeast fungi selected out of the cultured strains were sufficiently suspended in 5 ml of 0.85% sterile physiological saline, followed by correction to adjust the absorbance thereof at 530 nm to 0.108. The suspensions were diluted serially by 1:50 and then 1:20 in RPMI 1640 media to prepare liquid inocula ranging in cell count from 1.0×10^3 to 5.0×10^3 CFU/ml.
(§2) Antifungal samples were prepared by diluting the compounds of the present inventions in RPMI 1640 media to serial concentrations ranging from 0.0625 to 32 μg/ml. As a vehicle, DMSO was contained in a final concentration of 1% (V/V) in the antifungal samples. 0.1 ml of each of the dilutions in series was added to equal volume of each of the fungal inocula.
(§3) Concentrations of the compounds at which 50% of the fungi were inhibited compared to the negative control were determined using the growth indicator alamarblue.
In general terms: Alamar Blue is a resazurin reagent that responds to reducing activity.

The next data set deals with Aspergillus terreus. Put plainly: In vitro assay for antifungal activity. The following applies: RPMI 1640, 1% DMSO, concentration at which 50% of the fungi were inhibited vs negative control, alamarblue; for MIC: Aspergillus terreus. The class given is cell-based. As to the method: as §1, §2, §3
The next data set concerns Aspergillus fumigatus. Put plainly: In vitro assay for antifungal activity. Format: cell-based. Conditions: RPMI 1640, 1% DMSO, concentration at which 50% of the fungi were inhibited vs negative control, alamarblue; for MIC: Aspergillus fumigatus. As for the experimental part: as §1, §2, §3
A further data set has as its system Candida parapsilosis. Put plainly: In vitro assay for antifungal activity. Format: cell-based. Conditions: RPMI 1640, 1% DMSO, concentration at which 50% of the fungi were inhibited vs negative control, alamarblue, 24 hours; for MIC: Lodderomyces parapsilosis. As to the method:
as §1, §2, §3

The test system of a further data set is Candida tropicalis. Briefly: In vitro assay for antifungal activity. The class given is cell-based. The following applies: RPMI 1640, 1% DMSO, concentration at which 50% of the fungi were inhibited vs negative control, alamarblue, 24 hours; for MIC: Candida tropicalis. As for the experimental part:
as §1, §2, §3

The test system of data set [1] is Candida albicans. Put plainly: In vitro assay for antifungal activity. The class given is cell-based. The following applies: RPMI 1640, 1% DMSO, concentration at which 50% of the fungi were inhibited vs negative control, alamarblue, 24 hours; for MIC: Candida albicans. As to the method:
as §1, §2, §3

The next data set has as its system Cryptococcus neoformans. Put plainly: In vitro assay for antifungal activity. The following applies: RPMI 1640, 1% DMSO, concentration at which 50% of the fungi were inhibited vs negative control, alamarblue; for MIC: Cryptococcus neoformans. The class given is cell-based. As to the method:
as §1, §2, §3

The subject of a further data set is Candida krusei. Put plainly: In vitro assay for antifungal activity. Format: cell-based. The following applies: RPMI 1640, 1% DMSO, concentration at which 50% of the fungi were inhibited vs negative control, alamarblue, 24 hours; for MIC: Pichia kudriavzevii. As to the method: as §1, §2, §3
The next data set concerns Candida glabrata. Put plainly: In vitro assay for antifungal activity. The class given is cell-based. The following applies: RPMI 1640, 1% DMSO, concentration at which 50% of the fungi were inhibited vs negative control, alamarblue, 24 hours; for MIC: Nakaseomyces glabratus. As to the method:
as §1, §2, §3

Data set [2] can be described thus: Assay for acute toxicity in mice. Format: in vivo. Conditions: oral administration, suspension in aqueous 0.5% methylcellulose, up to a dose of 2000 mg/kg, two weeks.
For data set [3], the system named is Candida albicans. Put plainly: In vivo assay for antifungal activity (systemic candidiasis). Conditions: male mice infected i.v. with Candida albicans; 20 mg/kg orally once a day for seven days; at 28 days after the infection. As to the method: Azole compounds synthesized in Examples were assayed for antifungal activity in vivo.
A suspension containing Candida albicans in a concentration ranging from 7×10^7 to 8×10^7 cfu/ml was intravenously injected at a dose of 0.1 ml/head into 10 male mice. 2 hrs after the injection, the compounds of the present inventions were orally administered at a dose of 20 mg/kg to respective mice in groups of 10. The compounds were administered once a day for seven days. The periods of time for which the infected mice lived were counted. The number of mice that survived the fungal infection was represented as % survival for each test group.

As to `C[C@@H](n1cc(-c2ccccc2)cn1)[C@](O)(Cn1cncn1)c1ccc(F)cc1F` [Example 2], the “Antifungal Activity (MIC) Aspergillus flavus” value in the data set on Aspergillus flavus came to 4 µg/mL. Also, the “Antifungal Activity (MIC) Aspergillus terreus” value in the data set with Aspergillus terreus amounted to 4 µg/mL. For the same molecule, the “Antifungal Activity (MIC) Aspergillus fumigatus” value in the data set with Aspergillus fumigatus was 1 µg/mL. Besides, the “Antifungal Activity (MIC) Candida parapsilosis” value in the data set with Candida parapsilosis is on record as “≦0.015 μg/ml”. Further, the “Antifungal Activity (MIC) Candida tropicalis” value in the data set on Candida tropicalis was 0.25 µg/mL. Also, in the data set on Candida albicans [1], the “Antifungal Activity (MIC) Candida albicans” value is listed as “≦0.015 μg/ml”. Besides, in the data set on Cryptococcus neoformans, the “Antifungal Activity (MIC) Cryptococcus neoformans” value is 0.25 µg/mL. Further, in the data set on Candida krusei, the “Antifungal Activity (MIC) Candida krusei” value came to 0.5 µg/mL. Besides, the “Antifungal Activity (MIC) Candida glabrata” value with Candida glabrata is 2 µg/mL.
A word on the MIC: it is the lowest concentration found to suppress growth. Read a high MIC as a need for much substance. Take `C[C@@H](n1cc(-c2ccccc2F)cn1)[C@](O)(Cn1cncn1)c1ccc(F)cc1F` [Example 3, (2R,3R)-3-(4-(2-fluorophenyl)1H-pyrazole-1-yl)-2-(2,4-difluorophenyl)-1-(1H-1,2,4-triazole-1-yl)butane-2-ol]: the minimum inhibitory concentration (MIC) in the data set on Aspergillus flavus was 4 µg/mL (≈ 9.68 µM); in the data set with Aspergillus terreus, 2 µg/mL (≈ 4.84 µM); with Aspergillus fumigatus, 0.5 µg/mL (≈ 1.21 µM); in the data set with Candida parapsilosis, 0.031 µg/mL (≈ 0.075 µM); in the data set on Candida tropicalis, 1 µg/mL (≈ 2.42 µM); in the data set with Candida albicans [1], at most 0.015 µg/mL. In addition, the minimum inhibitory concentration (MIC) was 0.125 µg/mL (≈ 0.302 µM) in the data set with Cryptococcus neoformans, 1 µg/mL (≈ 2.42 µM) in the data set on Candida krusei and 2 µg/mL (≈ 4.84 µM) in the data set on Candida glabrata.
Turning to `C[C@@H](n1cc(-c2cccc(F)c2)cn1)[C@](O)(Cn1cncn1)c1ccc(F)cc1F` [Example 8, (2R,3R)-3-(4-(3-fluorophenyl)-1H-pyrazole-1-yl)-2-(2,4-difluorophenyl)-1-(1H-1,2,4-triazole-1-yl)butane-2-ol], the minimal inhibitory concentration (MIC) against Aspergillus flavus was 8 µg/mL (≈ 19.4 µM); with Aspergillus terreus, 2 µg/mL (≈ 4.84 µM); with Aspergillus fumigatus it was 1 µg/mL (≈ 2.42 µM); in the data set on Candida parapsilosis, at most 0.015 µg/mL; against Candida tropicalis it was 0.25 µg/mL (≈ 0.605 µM); against Candida albicans [1], at most 0.015 µg/mL. In addition, the MIC is 0.031 µg/mL (≈ 0.075 µM) with Cryptococcus neoformans, 0.5 µg/mL (≈ 1.21 µM) against Candida krusei and 2 µg/mL (≈ 4.84 µM) in the data set on Candida glabrata.
Consider `C[C@@H](n1cc(-c2cccc(Cl)c2)cn1)[C@](O)(Cn1cncn1)c1ccc(F)cc1F` [Example 9, (2R,3R)-3-(4-(3-chlorophenyl)-1H-pyrazole-1-yl)-2-(2,4-difluorophenyl)-1-(1H-1,2,4-triazole-1-yl)butane-2-ol], for which the MIC was 8 µg/mL (≈ 18.6 µM) against Aspergillus flavus; 4 µg/mL (≈ 9.31 µM) with Aspergillus terreus; 2 µg/mL (≈ 4.65 µM) against Aspergillus fumigatus; at most 0.015 µg/mL in the data set with Candida parapsilosis; 0.063 µg/mL (≈ 0.147 µM) with Candida tropicalis; at most 0.015 µg/mL against Candida albicans [1]. Further, the minimal inhibitory concentration (MIC) was 0.25 µg/mL (≈ 0.582 µM) against Cryptococcus neoformans, 0.25 µg/mL (≈ 0.582 µM) against Candida krusei and 1 µg/mL (≈ 2.33 µM) in the data set on Candida glabrata.
Take `C[C@@H](n1cc(-c2ccc(Cl)cc2)cn1)[C@](O)(Cn1cncn1)c1ccc(F)cc1F` [Example 14, (2R,3R)-3-(4-(4-chlorophenyl)-1H-pyrazole-1-yl)-2-(2,4-difluorophenyl)-1-(1H-1,2,4-triazole-1-yl)butane-2-ol]: in data set [2], the “toxic syndromes (acute toxicity)” value is given as “not to suffer from any toxic syndromes”. The MIC in the data set on Aspergillus flavus was 4 µg/mL (≈ 9.31 µM); with Aspergillus terreus, 2 µg/mL (≈ 4.65 µM); in the data set with Aspergillus fumigatus, 1 µg/mL (≈ 2.33 µM); in the data set on Candida parapsilosis, at most 0.015 µg/mL; in the data set with Candida tropicalis, 0.031 µg/mL (≈ 0.0721 µM); against Candida albicans [1], at most 0.015 µg/mL. Besides, the minimal inhibitory concentration (MIC) against Cryptococcus neoformans amounted to 0.25 µg/mL (≈ 0.582 µM); with Candida krusei, 0.25 µg/mL (≈ 0.582 µM); in the data set on Candida glabrata, 2 µg/mL (≈ 4.65 µM).
As to `C[C@@H](n1cc(-c2ccc(Br)cc2)cn1)[C@](O)(Cn1cncn1)c1ccc(F)cc1F` [Example 15, (2R,3R)-3-(4-(4-bromophenyl)-1H-pyrazole-1-yl)-2-(2,4-difluorophenyl)-1-(1H-1,2,4-triazole-1-yl)butane-2-ol], the minimum inhibitory concentration (MIC) against Aspergillus flavus was 4 µg/mL (≈ 8.43 µM); with Aspergillus terreus, 1 µg/mL (≈ 2.11 µM); against Aspergillus fumigatus, 1 µg/mL (≈ 2.11 µM); in the data set with Candida parapsilosis it was at most 0.015 µg/mL; in the data set on Candida tropicalis, 0.125 µg/mL (≈ 0.264 µM); against Candida albicans [1], at most 0.015 µg/mL. The figures for the MIC in the data set with Cryptococcus neoformans, against Candida krusei and against Candida glabrata were 0.125 µg/mL (≈ 0.264 µM), 0.5 µg/mL (≈ 1.05 µM) and 2 µg/mL (≈ 4.22 µM), respectively.
Consider `C[C@@H](n1cc(-c2ccc([N+](=O)[O-])cc2)cn1)[C@](O)(Cn1cncn1)c1ccc(F)cc1F` [Example 17, (2R,3R)-2-(2,4-difluorophenyl)-3-(4-(4-nitrophenyl)-1H-pyrazole-1-yl)-1-(1H-1,2,4-triazole-1-yl)butane-2-ol], for which the “toxic syndromes (acute toxicity)” value in data set [2] is “not to suffer from any toxic syndromes”. The minimal inhibitory concentration (MIC) is 8 µg/mL (≈ 18.2 µM) in the data set with Aspergillus flavus; 2 µg/mL (≈ 4.54 µM) against Aspergillus terreus; 2 µg/mL (≈ 4.54 µM) with Aspergillus fumigatus; at most 0.015 µg/mL against Candida parapsilosis; 0.125 µg/mL (≈ 0.284 µM) against Candida tropicalis; at most 0.015 µg/mL against Candida albicans [1]. The results for the MIC against Cryptococcus neoformans, against Candida krusei and in the data set on Candida glabrata were 0.031 µg/mL (≈ 0.0704 µM), 0.25 µg/mL (≈ 0.568 µM) and 4 µg/mL (≈ 9.08 µM), respectively.
Take `OC(Cn1cncn1)(Cn1cncn1)c1ccc(F)cc1F` [Fluconazole, reference compound]: in the data set on Candida albicans [3], the “% survival” value stood at 10%. Further, the MIC against Aspergillus flavus is over 128 µg/mL; with Aspergillus terreus it was over 128 µg/mL; in the data set on Aspergillus fumigatus it was over 128 µg/mL; with Candida parapsilosis, over 8 µg/mL; in the data set on Candida tropicalis it was over 8 µg/mL; in the data set on Candida albicans [1] it was 4 µg/mL (≈ 13.1 µM). The figures for the minimum inhibitory concentration (MIC) in the data set on Cryptococcus neoformans, in the data set with Candida krusei and with Candida glabrata were 8 µg/mL (≈ 26.1 µM), over 32 µg/mL and over 32 µg/mL, respectively.
